The results in this text go back to ChEMBL document CHEMBL1821618, “Characteristic of alkylated chalcones from Angelica keiskei on influenza virus neuraminidase inhibition” (Bioorg Med Chem Lett, 2011).

The target in assay [1] is Neuraminidase (Influenza A virus (strain A/Brevig Mission/1/1918 H1N1) (Influenza Avirus (strain A/South Carolina/1/1918 H1N1)), UniProt Q9IGQ6). In words: Inhibition of Influenza A virus (A/Brevig Mission/1/1918(H1N1)) recombinant neuraminidase using 4-methylumbelliferyl-alpha-D-N-acetylneuraminic acid sodium salt hydrate solution substrate by ELISA. A general note: An ELISA detects its analyte on a solid surface through an enzyme-linked reagent.
Neuraminidase (Influenza A virus (strain A/Brevig Mission/1/1918 H1N1) (Influenza Avirus (strain A/South Carolina/1/1918 H1N1)), UniProt Q9IGQ6), sequence (Q9IGQ6 whole entry): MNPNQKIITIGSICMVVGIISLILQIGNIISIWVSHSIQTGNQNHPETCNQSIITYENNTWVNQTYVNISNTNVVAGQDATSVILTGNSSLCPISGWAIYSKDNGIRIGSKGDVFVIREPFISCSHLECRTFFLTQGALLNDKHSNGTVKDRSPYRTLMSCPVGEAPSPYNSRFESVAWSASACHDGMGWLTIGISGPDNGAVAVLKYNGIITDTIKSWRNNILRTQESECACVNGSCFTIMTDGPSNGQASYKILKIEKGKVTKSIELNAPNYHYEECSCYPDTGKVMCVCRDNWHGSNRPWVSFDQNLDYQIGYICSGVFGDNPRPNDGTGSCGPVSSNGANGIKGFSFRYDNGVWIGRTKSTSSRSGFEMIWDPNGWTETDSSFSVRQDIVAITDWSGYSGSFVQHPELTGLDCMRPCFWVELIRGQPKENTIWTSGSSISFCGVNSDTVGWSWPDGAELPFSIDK

Assay [2] has the same target. Put plainly: Noncompetitive inhibition of Influenza A virus (A/Brevig Mission/1/1918(H1N1)) recombinant neuraminidase using 4-methylumbelliferyl-alpha-D-N-acetylneuraminic acid sodium salt hydrate solution substrate by double reciprocal Lineweaver-Burk plot and dixon plot analysis.

Take `C=C(C)C(O)CC/C(C)=C/Cc1c(OC)ccc(C(=O)/C=C/c2ccc(O)cc2)c1O` (configuration not stated) [XANTHOANGELOL G]: in assay [1], the IC50 is 24.2 µM. For the same compound, the Ki in assay [2] was determined as 20 µM.
As for `COc1ccc(C(=O)/C=C/c2ccc(O)cc2)c(O)c1CC=C(C)C`, the IC50 in assay [1] amounted to 42.1 µM. Further, the Ki in assay [2] is 50.2 µM.
For `COc1ccc(C(=O)/C=C/c2ccc(O)cc2)c(O)c1C/C=C(\C)CCC=C(C)C` [XANTHOANGELOL F], in assay [1], the half-inhibitory concentration (IC50) came out at 85.9 µM. The inhibition constant Ki in assay [2] came out at 123 µM.
On the same counts, the results for `C=C(C)C(O)CC/C(C)=C/Cc1c(O)ccc(C(=O)/C=C/c2ccc(O)cc2)c1O` (configuration not stated) [XANTHOANGELOL B] are 22.5 µM and 20.7 µM.
On the same counts, the results for `C=C(C)C(O)Cc1c(OC)ccc(C(=O)/C=C/c2ccc(O)cc2)c1O` (configuration not stated) [XANTHOANGELOL D] are 12.3 µM and 14 µM.
On the same counts, the results for `COC(CC/C(C)=C/Cc1c(O)ccc(C(=O)/C=C/c2ccc(O)cc2)c1O)OC` [XANTHOKEISTAL A] are 30.9 µM and 33.5 µM.

By IC50 is commonly meant the concentration needed to halve the response being measured. By Ki is commonly meant a dissociation constant, usually derived from enzyme kinetics or from competition with a known ligand.
